One block for each compound: values may come before it. Non-standard residues stand in square brackets, D forms with d. Residues, ends and D or L forms follow the SMILES beside them. Primed or numbered codes have the meaning given here. *: point of attachment. Palmitoyl = CCCCCCCCCCCCCCCC(=O)*; Tic = O=C(O)[C@@H]1Cc2ccccc2CN1; PEG8′ = not defined here
Key:
CMKLR1 [1] = biological target: T1, CMKLR1 (Homo sapiens, UniProt Q99788); assay: β-Arrestin recruitment, Link-Light CMKLR1 stable cell line; format: cell-based; conditions: 1 hr treatment; for Emax: read-out: Max Efficacy (% 10 μM s-Stable chem9)
T1 construct: expressed in transfected cells; host or cells: HEK293
T1 sequence (Q99788 1-373): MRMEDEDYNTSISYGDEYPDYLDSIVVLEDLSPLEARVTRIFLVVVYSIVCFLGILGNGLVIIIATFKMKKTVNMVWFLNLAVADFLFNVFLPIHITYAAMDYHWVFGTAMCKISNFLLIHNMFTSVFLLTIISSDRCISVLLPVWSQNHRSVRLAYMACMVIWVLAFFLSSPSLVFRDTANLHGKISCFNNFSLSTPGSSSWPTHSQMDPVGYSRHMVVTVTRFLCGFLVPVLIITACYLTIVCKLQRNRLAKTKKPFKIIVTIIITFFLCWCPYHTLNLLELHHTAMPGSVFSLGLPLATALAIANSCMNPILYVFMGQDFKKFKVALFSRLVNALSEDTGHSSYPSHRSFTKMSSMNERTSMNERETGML

CMKLR1 [2] = biological target: T1, CMKLR1; assay: Luciferase reporter assay of CMKLR1 canonical Gαi signal transduction in HEK293 cells transiently expressing recombinant CMKLR1 (+/- wash, +/- albumin); format: cell-based; conditions: for EC50: no wash
DED mice = assay: Dry eye disease (DED) mouse model (scopolamine and desiccating stress); format: in vivo
Source text: FIG. 11 is a graph showing that corneal fluorescein staining scores were lower in DED mice treated with oTTx-010. NEI scoring system: 0-15.
FIG. 13 is a set of flow cytometry graphs showing that percentage of activated immune cells (MHCII+) in the draining lymph node of oTTx-010 treated mice decreased compared to vehicle controls.
FIG. 14 is a set of flow cytometry graphs showing that T regulatory cells increased in the draining lymph node of oTTx-010 treated mice compared to vehicle (showing more tolerance). Flow cytometry of draining lymph nodes gated on CD45+ CD3+ and CD4+ (T cells).
In the DED mouse model, scopolamine is injected 3 times/day to decrease tear production in mice. Fenestrated cages and 4 fans around the cage working 24 hours/day are used to induce desiccating stress and dry eyes. oTTx-010 is administered to the mice to assess treatment efficacy. Vehicle is administered as control.

[3] = tested on: mouse model of corneal inflammation; assay: Thermal cautery mouse model of corneal inflammation; format: in vivo
Procedure: FIG. 15 is a set of flow cytometry graphs showing that cell infiltration decreases after topical application of oTTx-010 compared to vehicle. Flow cytometry of pulled corneas was performed on day 3 post cautery. Mice were treated topically three times a day with 10 μL of oTTx-010 or vehicle for 3 days. 10 μL of […] oTTx-010 in 1×PBS solution=4.2 micrograms oTTx-010/dose.
Thermal cautery is a mouse model of corneal inflammation (see Arch Ophthalmol. 2003 Hamrah et al.).

[4] = tested on: chronic constriction injury (CCI) mouse model; assay: Chronic constriction injury (CCI) mouse model of neuropathic pain; format: in vivo; conditions: for effect on neuropathic pain: CCI mouse model; for time after compound administration over which mechanical hypersensitivity is blocked / efficacy kept: intrathecal administration
Procedure: Following intrathecal administration of compound, 1-Stable Chem (C16-stable Chem9) blocked mechanical hypersensitivity for more than 24 hours after compound administration (FIG. 6A). In contrast, Resolvin E1 lost efficacy by 3 hours post injection (FIG. 6B).
One emerging treatment strategy to treat neuropathic pain is to target modulators of the neuroinflammatory process which contributes to neuropathic pain. We have previously identified a palmitoylated stable analog (“C16-Stable Chem9”) derived from a 9 amino acid fragment of chemerin. […] Extending from these observations, we hypothesized that the pharmacological properties of our peptide may be further optimized by modifying the lipid anchor. We have chemically synthesized a series of Chem 9 analogs with various lipid tails (e.g. cholesterol, oleic acid, linolenic acid). In vitro pharmacological characterization of each peptide was done using HEK293 cells transiently expressing the recombinant CMKLR1. […] Furthermore, selected lipid tails bias binding to either albumin (thus enhancing systemic delivery) or to the cellular membrane (which favors locally restricted function). The lipidated CMKLR1 ligands have promise as modulators of neuropathic pain. In addition, our findings illustrate an approach where serial addition/substitution of lipid anchors can be applied to optimize the pharmacological as well as pharmacokinetic properties of many peptide ligands.

Compound: CC/C=C\C/C=C\C/C=C\CCCCCCCC(=O)NCCOCCOCCOCCOCCOCCOCCOCCOCCC(=O)N[C@@H](CCCCN)C(=O)NCC(=O)NCC(=O)N[C@H](Cc1ccc(O)cc1)C(=O)N[C@@H](Cc1ccccc1)C(=O)N[C@@H](CC(C)C)C(=O)N1CCC[C@H]1C(=O)N[C@H](CO)C(=O)N[C@@H](CCC(N)=O)C(=O)N[C@@H](Cc1ccccc1)C(=O)N[C@H](C)C(=O)N1Cc2ccccc2C[C@H]1C(=O)N[C@@H](CO)C(=O)O [C18:3] (HELM PEPTIDE1{[CC/C=C\C/C=C\C/C=C\CCCCCCCC(=O)[*:2]].[O=C(CCOCCOCCOCCOCCOCCOCCOCCOCCN[*:1])[*:2]].K.G.G.[dY].F.L.P.[dS].Q.F.[dA].[Tic].S}$$$$V2.0; N-terminus and C-terminus assumed)
activity after washing in the presence of BSA (CMKLR1 [2]; with BSA, FIGS. 8C-8D): further reduced
Emax (CMKLR1 [1]): 110%

Compound: palmitate-PEG8KGG-H2N-Y*-F-L-P-S*-Q-F-A*-Tic-S-COOH ({Palmitoyl-PEG8′}-KGG[dY]FLP[dS]QF[dA][Tic]S-OH) [oTTx-010]
corneal fluorescein staining scores (DED mice; NEI scoring system: 0-15, compared with vehicle): lower
blink reflex as a sign of ocular irritation (DED mice; compared to vehicle treated group): significantly lower
T regulatory cells in the draining lymph node (DED mice; flow cytometry gated on CD45+ CD3+ and CD4+, compared to vehicle): increased
percentage of activated immune cells (MHCII+) in the draining lymph node (DED mice; flow cytometry, compared to vehicle controls): decreased
clinical symptoms and signs and immune tolerance in DED (DED mice; topical): decrease clinical symptoms and signs and improve immune tolerance
cell infiltration (flow cytometry of corneas) ([3]; day 3 post cautery, topical three times a day 10 μL for 3 days, compared to vehicle): decreases
inflammation in the eye ([3]; topical): decrease inflammation in the eye

Compound: CCCC/C=C\CCCCCCCC(=O)NCCOCCOCCOCCOCCOCCOCCOCCOCCC(=O)N[C@@H](CCCCN)C(=O)NCC(=O)NCC(=O)N[C@H](Cc1ccc(O)cc1)C(=O)N[C@@H](Cc1ccccc1)C(=O)N[C@@H](CC(C)C)C(=O)N1CCC[C@H]1C(=O)N[C@H](CO)C(=O)N[C@@H](CCC(N)=O)C(=O)N[C@@H](Cc1ccccc1)C(=O)N[C@H](C)C(=O)N1Cc2ccccc2C[C@H]1C(=O)N[C@@H](CO)C(=O)O [C14:1] (HELM PEPTIDE1{[CCCC/C=C\CCCCCCCC(=O)[*:2]].[O=C(CCOCCOCCOCCOCCOCCOCCOCCOCCN[*:1])[*:2]].K.G.G.[dY].F.L.P.[dS].Q.F.[dA].[Tic].S}$$$$V2.0; N-terminus and C-terminus assumed)
Emax (CMKLR1 [1]): 124%

Compound: CCCCCCCC/C=C\CCCCCCCC(=O)NCCOCCOCCOCCOCCOCCOCCOCCOCCC(=O)N[C@@H](CCCCN)C(=O)NCC(=O)NCC(=O)N[C@H](Cc1ccc(O)cc1)C(=O)N[C@@H](Cc1ccccc1)C(=O)N[C@@H](CC(C)C)C(=O)N1CCC[C@H]1C(=O)N[C@H](CO)C(=O)N[C@@H](CCC(N)=O)C(=O)N[C@@H](Cc1ccccc1)C(=O)N[C@H](C)C(=O)N1Cc2ccccc2C[C@H]1C(=O)N[C@@H](CO)C(=O)O [C18:1] (HELM PEPTIDE1{[CCCCCCCC/C=C\CCCCCCCC(=O)[*:2]].[O=C(CCOCCOCCOCCOCCOCCOCCOCCOCCN[*:1])[*:2]].K.G.G.[dY].F.L.P.[dS].Q.F.[dA].[Tic].S}$$$$V2.0; N-terminus and C-terminus assumed)
Emax (CMKLR1 [1]): 160%

Compound: CC[C@@H](O)/C=C/C=C\C[C@@H](O)/C=C/C=C/C=C\[C@@H](O)CCCC(=O)O [Resolvin E1, reference compound]
effect on neuropathic pain [4]: abrogate neuropathic pain
time after compound administration over which mechanical hypersensitivity is blocked / efficacy kept [4]: ≤ 3 h

Compound: CC(C)C[C@H](NC(=O)[C@H](Cc1ccccc1)NC(=O)[C@H](N)Cc1ccc(O)cc1)C(=O)N1CCC[C@H]1C(=O)N[C@H](CO)C(=O)N[C@@H](CCC(N)=O)C(=O)N[C@@H](Cc1ccccc1)C(=O)N[C@H](C)C(=O)N1Cc2ccccc2C[C@H]1C(=O)N[C@@H](CO)C(=O)O [none, reference compound] (HELM PEPTIDE1{[dY].F.L.P.[dS].Q.F.[dA].[Tic].S}$$$$V2.0)
EC50 (CMKLR1 [2]; no BSA, read-out: EC50 (no wash0)): 0.0352 µM
EC50 (CMKLR1 [2]; with BSA, read-out: EC50 (BSA) (no wash)): 0.0051 µM
EC50 (CMKLR1 [1]): 0.0319 µM
Emax (CMKLR1 [1]): 100%

Compound: CCCCCC/C=C\CCCCCCCC(=O)NCCOCCOCCOCCOCCOCCOCCOCCOCCC(=O)N[C@@H](CCCCN)C(=O)NCC(=O)NCC(=O)N[C@H](Cc1ccc(O)cc1)C(=O)N[C@@H](Cc1ccccc1)C(=O)N[C@@H](CC(C)C)C(=O)N1CCC[C@H]1C(=O)N[C@H](CO)C(=O)N[C@@H](CCC(N)=O)C(=O)N[C@@H](Cc1ccccc1)C(=O)N[C@H](C)C(=O)N1Cc2ccccc2C[C@H]1C(=O)N[C@@H](CO)C(=O)O [C16:1] (HELM PEPTIDE1{[CCCCCC/C=C\CCCCCCCC(=O)[*:2]].[O=C(CCOCCOCCOCCOCCOCCOCCOCCOCCN[*:1])[*:2]].K.G.G.[dY].F.L.P.[dS].Q.F.[dA].[Tic].S}$$$$V2.0; N-terminus and C-terminus assumed)
Emax (CMKLR1 [1]): 154%

More lines, main results first:

Emax (CMKLR1 [1]): 98.3%
Compound: CCCCCCCCCC(=O)NCCOCCOCCOCCOCCOCCOCCOCCOCCC(=O)N[C@@H](CCCCN)C(=O)NCC(=O)NCC(=O)N[C@H](Cc1ccc(O)cc1)C(=O)N[C@@H](Cc1ccccc1)C(=O)N[C@@H](CC(C)C)C(=O)N1CCC[C@H]1C(=O)N[C@H](CO)C(=O)N[C@@H](CCC(N)=O)C(=O)N[C@@H](Cc1ccccc1)C(=O)N[C@H](C)C(=O)N1Cc2ccccc2C[C@H]1C(=O)N[C@@H](CO)C(=O)O [C10] (HELM PEPTIDE1{[CCCCCCCCCC(=O)[*:2]].[O=C(CCOCCOCCOCCOCCOCCOCCOCCOCCN[*:1])[*:2]].K.G.G.[dY].F.L.P.[dS].Q.F.[dA].[Tic].S}$$$$V2.0; N-terminus and C-terminus assumed)

Emax (CMKLR1 [1]): 89.7%
Compound: CCCC(=O)NCCOCCOCCOCCOCCOCCOCCOCCOCCC(=O)N[C@@H](CCCCN)C(=O)NCC(=O)NCC(=O)N[C@H](Cc1ccc(O)cc1)C(=O)N[C@@H](Cc1ccccc1)C(=O)N[C@@H](CC(C)C)C(=O)N1CCC[C@H]1C(=O)N[C@H](CO)C(=O)N[C@@H](CCC(N)=O)C(=O)N[C@@H](Cc1ccccc1)C(=O)N[C@H](C)C(=O)N1Cc2ccccc2C[C@H]1C(=O)N[C@@H](CO)C(=O)O [C4] (HELM PEPTIDE1{[CCCC(=O)[*:2]].[O=C(CCOCCOCCOCCOCCOCCOCCOCCOCCN[*:1])[*:2]].K.G.G.[dY].F.L.P.[dS].Q.F.[dA].[Tic].S}$$$$V2.0; N-terminus and C-terminus assumed)

potency and duration of activity (anchors to the cell membrane) (CMKLR1 [2]; previously identified analog): high potency and long-term activity
wash resistance (an index of membrane adherence) in the presence of BSA (CMKLR1 [2]; with BSA, FIGS. 8A-8B): decreased
Emax (CMKLR1 [1]): 165%
Compound: CCCCCCCCCCCCCCCC(=O)NCCOCCOCCOCCOCCOCCOCCOCCOCCC(=O)N[C@@H](CCCCN)C(=O)NCC(=O)NCC(=O)N[C@H](Cc1ccc(O)cc1)C(=O)N[C@@H](Cc1ccccc1)C(=O)N[C@@H](CC(C)C)C(=O)N1CCC[C@H]1C(=O)N[C@H](CO)C(=O)N[C@@H](CCC(N)=O)C(=O)N[C@@H](Cc1ccccc1)C(=O)N[C@H](C)C(=O)N1Cc2ccccc2C[C@H]1C(=O)N[C@@H](CO)C(=O)O [C16] (HELM PEPTIDE1{[CCCCCCCCCCCCCCCC(=O)[*:2]].[O=C(CCOCCOCCOCCOCCOCCOCCOCCOCCN[*:1])[*:2]].K.G.G.[dY].F.L.P.[dS].Q.F.[dA].[Tic].S}$$$$V2.0; N-terminus and C-terminus assumed)
effect on neuropathic pain ([4]; listed as C16-stable Chem9): abrogate neuropathic pain
effect on neuropathic pain ([4]; listed as palm sC9): alleviated neuropathic pain
time after compound administration over which mechanical hypersensitivity is blocked / efficacy kept [4]: more than 24 hours

Reference: patent US11197906B2, “Methods of lowering blink reflex for the treatment of dry eye disease” (Tufts Medical Center, priority 2016, dated 2021)
